According to ChEMBL document CHEMBL1133876, “alpha-Ketocarboxylic acid-based inhibitors of protein tyrosine phosphatases” (Bioorg Med Chem Lett, 2001):

target: Tyrosine-protein phosphatase YopH (Yersinia enterocolitica) (UniProt P15273); assay: Inhibitory activity against Yersinia Protein-tyrosine phosphatase YopH
Sequence (P15273 whole entry, looked up): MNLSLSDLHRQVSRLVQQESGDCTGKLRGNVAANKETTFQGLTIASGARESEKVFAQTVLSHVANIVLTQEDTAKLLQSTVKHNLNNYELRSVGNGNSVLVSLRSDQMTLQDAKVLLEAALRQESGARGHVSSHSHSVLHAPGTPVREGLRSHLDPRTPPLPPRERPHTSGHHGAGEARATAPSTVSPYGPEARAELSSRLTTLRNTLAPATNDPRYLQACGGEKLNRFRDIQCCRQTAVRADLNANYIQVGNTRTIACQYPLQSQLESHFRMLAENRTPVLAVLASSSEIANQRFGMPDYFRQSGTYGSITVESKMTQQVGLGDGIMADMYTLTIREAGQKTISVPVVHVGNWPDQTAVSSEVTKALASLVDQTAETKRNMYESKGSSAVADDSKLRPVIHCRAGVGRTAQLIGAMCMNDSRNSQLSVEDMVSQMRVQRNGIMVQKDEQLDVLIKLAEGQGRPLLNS

| SMILES | Ki [µM] |
| --- | --- |
| O=C(O)C(=O)c1ccco1 | 79 |
| O=P(O)(O)C(F)(F)c1ccc2ccccc2c1 | 179 |

target: Tyrosine-protein phosphatase YopH (Yersinia enterocolitica) (UniProt P15273); assay: as above; remark: another data set of the same source

| SMILES | IC50 [µM] |
| --- | --- |
| O=C(O)C(=O)c1c(F)c(F)c(F)c(F)c1F | 790 |
| O=C(O)C(=O)c1ccccc1 [BENZOYL FORMIC ACID] | 2700 |
| O=C(O)[C@@H](O)c1ccccc1 | 4900 |
| COc1ccc(C(=O)C(=O)O)cc1 | 150 |
| O=C(O)C(O)c1ccco1 (stereo not drawn) | 27 |
| O=C(O)C(=O)c1c[nH]c2ccccc12 | 390 |

The next lines start with the values.

| IC50 [µM] | SMILES |
| --- | --- |
| 3500 | O=C(O)Cc1ccc2ccccc2c1 |
| 190 | O=C(O)C(=O)c1ccc2ccccc2c1 |
| 1500 | O=C(O)C(=O)c1ccccc1C(=O)O |
| 1700 | COc1ccc(C(=O)C(=O)O)cc1OC |
| 950 | O=C(O)C(=O)c1cccs1 |
| 5700 | COc1ccc(C(O)C(=O)O)cc1 (stereo not drawn) |
| 5500 | O=C(O)[C@H](O)c1ccccc1 |
| 3300 | O=C(O)C(O)c1ccc2ccccc2c1 (stereo not drawn) |
| 2300 | COC(=O)c1ccc(C(=O)C(=O)O)cc1 |
| 2700 | O=C(O)C(=O)c1ccc([N+](=O)[O-])cc1 |
